Assays:
[1] = tested on: field-stimulated guinea pig ileum; assay: Gastrokinetic Activity: contraction of field-stimulated guinea pig ileum preparations; set-up: species or system guinea pig (Hartley); details: Cavia porcellus; for EC30: effective concentration30, read-out: EC30 (95% C.L.); for EC50: effective concentration50, read-out: EC50 (95% C.L.); for minimal effective concentration: read-out: Minimum Effective Concentration
Description: This activity is considered to be correlated with gastrokinetic (prokinetic) activity in vivo, i.e. enhancement of gastric motility and gastric emptying.
Normal, male guinea pigs (Hartley; Charles River) weighing […] are sacrificed by cervical dislocation. The terminal portion of the ileum was removed after discarding a 10 cm segment nearest to the ileocecal junction. The strips, 3-4 cm in length, were mounted in a 20 ml organ bath containing Krebs physiological buffer solution. The buffer was bubbled with 95% O2 -5% CO2 and kept at 37° C. The resting tension was adjusted to 1.0 g, and the tissues were equilibrated without stimulation for 15 minutes. For electrical stimulation, a platinum wire (cathode) was threaded up through the lumen and another platinum wire (anode) was attached to the glass rod that suspended the muscle. Tissues were stimulated coaxially at 1.5 times the voltage necessary to produce maximum twitch height, with single pulses, 0.5 msec in duration, delivered once every 10 seconds. After the 15 minute equilibration period (without stimulation), the stimulator (Grass S88 Stimulator) was turned on and the tissues were allowed to stabilize for approximately 1 hour, or until the twitch height remained constant, with washes every 20 minutes.

[2] = molecular target: dopaminergic (D2) receptors (Rattus norvegicus, UniProt P61169); assay: biochemical; type: binding; details: striatal rat brain homogenates, ^3H-spiperone, 37° C., 15 minutes; read-out: 3H-Spiperone Displacement IC50
Description: Rats (150±10 g; Charles River) were decapitated, the corpus striatum dissected out and frozen on dry ice. The tissues were pooled and stored at -80° C. until used. Homogenates (Brinkmann Polytron) of the corpus striatum in cold HEPES.KOH buffer (final pH=7.4) were centrifuged at 39,000×G. The supernatant was discarded and the pellets were re-suspended in HEPES.KOH buffer and re-centrifuged as above.
Tests to determine the Inhibitory Concentration50 (IC50) of the compounds of Formula I and reference compounds versus ^3 H-spiperone were conducted as follows. Tubes containing either 100 μL of buffer mixture (for total binding), 100 μL of buffer mixture plus 100 μL of 10^-4 M D(+)-butaclamol (for blanks, i.e. non-specific binding), or 100 μL of buffer mixture containing 10^-7, 10^-6 or 10^-5 M test compound were prepared. To each were added 100 μL of a solution of ^3 H-spiperone (New England Nuclear) in buffer mixture (2000 c.p.m. in the incubation mixture) and 800 μL of the striatal tissue suspension. The tubes were then diluted to 1 mL with buffer mixture, giving a final concentration of 10^-8, 10^-7 or 10^-6 M test compound and approximately 100 pM ^3 H-spiperone. The samples were incubated at 37° C. for 15 minutes, filtered in vacuo on glass fiber filters and counted by liquid scintillation spectrometry. […] All samples were run in duplicate.

[3] = tested on: Apomorphine-Induced Emesis; assay: Antagonism of Apomorphine-Induced Emesis in Dogs; type: in vivo, beagle dogs; details: Canis lupus familiaris, sc; s.c. 30 minutes prior to apomorphine 0.3 mg/kg; dog; read-out: Antagonism of Apomorphine-Induced Emesis in the Dog ED50
Description: Unfasted beagle dogs of both sexes were used as test subjects. Test compounds and apomorphine were each administered subcutaneously as aqueous solutions, with the test compound being administered 30 minutes prior to the administration of the apormorphine.
Apomorphine was administered at a dose of 0.3 mg/kg. […] All tests were run in at least two dogs.

Cisplatin-Induced Emesis = assay: Antagonism of Cisplatin-Induced Emesis in the Ferret; type: in vivo, Fitch ferrets; details: Mustela putorius, iv, 4 h; 3 mg/kg, i.v. × 2; read-out: Antagonism of Cisplatin-Induced Emesis in the Ferret, % Protection
Description: The ventral and dorsal area of the neck is shaved and a 3 cm incision is made. The left jugular vein is exposed and ligated with a silk suture at the cephalic end. The indwelling catheter is constructed of Silastic tubing 18 cm in length (0.020 inch I.D.×0.037 inch O.D.) with a 2 cm polyethylene sleeve (0.045 inch I.D.×0.062 inch O.D.) filled with heparin (1000 units/ml) and sealed at the exposed end with a 23 gauge×1 inch needle crimped at both ends. A small cut is made in the jugular and the catheter inserted, allowing the free end to be delivered through a 13 gauge×5 cm trochar under the skin and attached to the nape of the neck with a silk suture. The ferrets are housed in individual cages and allowed 2-4 days recovery before testing. On the test day, the test compounds were administered i.v. […] The cisplatin solution was prepared by adding 70° C. physiological saline, stirring and sonicating until dissolved. The resulting solution (4 mg/ml) was maintained at 40° C. and administered i.v. ([…]) via the catheter. Following administration of cisplatin, the ferrets were observed continuously for four hours and emetic episodes recorded. Two or more emetic episodes within a one-minutes period was considered as a single episode. The ferrets were euthanized with T-61 i.v. at the termination of the experiment, and proper placement of the catheter was verified.

[4] = read-out: Average % Maximum Increase

dopaminergic (D2) receptors, sequence (P61169 whole entry): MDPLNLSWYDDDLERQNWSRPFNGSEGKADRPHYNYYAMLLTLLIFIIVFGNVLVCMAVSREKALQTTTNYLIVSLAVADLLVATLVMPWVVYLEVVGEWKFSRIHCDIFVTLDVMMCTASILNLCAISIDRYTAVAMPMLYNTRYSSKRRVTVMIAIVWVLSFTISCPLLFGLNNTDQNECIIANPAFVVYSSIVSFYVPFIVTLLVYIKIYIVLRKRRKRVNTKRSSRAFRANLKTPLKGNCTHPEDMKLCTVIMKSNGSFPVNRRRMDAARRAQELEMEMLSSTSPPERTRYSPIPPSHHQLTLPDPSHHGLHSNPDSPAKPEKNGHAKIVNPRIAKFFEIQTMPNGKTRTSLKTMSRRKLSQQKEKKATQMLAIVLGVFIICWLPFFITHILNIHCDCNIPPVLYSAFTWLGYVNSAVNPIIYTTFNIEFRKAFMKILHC

Structure (SMILES)	EC50 [1]	IC50 [2]	activation at 100 µM ([1]; at 100 μM, read-out: Average % Maximum Increase)	EC30 [1]	minimal effective concentration [1]	ED50 [3]	inhibition in vivo at 3 mg/kg (Cisplatin-Induced Emesis)	activation at 30 µM [1, 4]	activation at 10 µM [1, 4]	activation at 300 µM ([1]; at 300 μM, read-out: Average % Maximum Increase)
CCN(CC)CCNC(=O)c1cc(Cl)c(N)cc1OCC[S+](C)[O-] (stereo not shown) [Example 21, 4-Amino-5-chloro-N-[2-(diethylamino)ethyl]-2-[2-(methylsulfinyl)ethoxy]benzamide]	2.3 µM	> 1000 nM		0.57 µM	0.1 µM	> 3 mg/kg	49%	88%		
CCN(CC)CCNC(=O)c1cc(Cl)c(N)cc1OCCC[S+](C)[O-] (stereo not shown) [Example 50, 4-Amino-5-chloro-N-[2-(diethylamino)ethyl]-2-[3-(methylsulfinyl)propoxy]benzamide]	39 µM	> 1000 nM		12 µM	1 µM	> 3 mg/kg	62%	45%		
CCN(CC)CCNC(=O)c1cc(Cl)c(N)cc1OCCCC(=O)N(CC)CC [Example 56, 4-Amino-5-chloro-N-[2-(diethylamino)ethyl]-2-(4-diethylamino-4-oxobutoxy)benzamide]	7.3 µM	> 1000 nM		1.1 µM	0.1 µM	> 3 mg/kg	81%	59%		
CCN(CC)CCNC(=O)c1cc(Cl)c(N)cc1OCCOC(C)=O [Example 57, 2-(2-Acetoxyethoxy)-4-amino-5-chloro-N-[2-(diethylamino)ethyl]-benzamide]		> 1000 nM				> 3 mg/kg	66%			
CCN(CC)CCNC(=O)c1cc(Cl)c(N)cc1OCCCC[S+](C)[O-] (stereo not shown) [Example 58]	5.6 µM	> 1000 nM		1.5 µM	0.3 µM	> 3 mg/kg	66%	72%		
CCN(CC)CCNC(=O)c1cc(Cl)c(N)cc1OCC[S+]([O-])CC (stereo not shown) [Example 60]	4.8 µM	> 1000 nM		0.88 µM	0.1 µM	> 3 mg/kg	52%	66%		

Now from value to compound, other results behind:

EC50 [1]	IC50 [2]	Structure (SMILES)	activation at 100 µM ([1]; at 100 μM, read-out: Average % Maximum Increase)	EC30 [1]	minimal effective concentration [1]	ED50 [3]	inhibition in vivo at 3 mg/kg (Cisplatin-Induced Emesis)	activation at 30 µM [1, 4]	activation at 10 µM [1, 4]	activation at 300 µM ([1]; at 300 μM, read-out: Average % Maximum Increase)
3.7 µM	> 1000 nM	CCN(CC)CCNC(=O)c1cc(Cl)c(N)cc1OCC(N)=O [Example 16, 4-Amino-2-(2-amino-2-oxoethoxy)-5-chloro-N-[2-(diethylamino)ethyl]benzamideAcetate Monohydrate]	72%	0.5 µM	0.03 µM	> 3 mg/kg	21%			
4.6 µM	> 1000 nM	CCN(CC)CCNC(=O)c1cc(Cl)c(N)cc1OCC(=O)NN.O.O.O [Example 36, 4-Amino-5-chloro-N-[2-(diethylamino)ethyl]-2-(2-hydrazino-2-oxoethoxy)benzamide Trihydrate]		0.5 µM	0.1 µM	> 3 mg/kg	86%		55%	
6.6 µM	> 1000 nM	CCN(CC)CCNC(=O)c1cc(Cl)c(N)cc1OCC(=O)NNC(C)=O [Example 37, 4-Amino-5-chloro-N-[2-(diethylamino)ethyl]-2-[2-(2-acetylhydrazino)-2-oxoethoxy]benzamide Acetate]		0.72 µM		> 3 mg/kg	57%			83%
5.5 µM	> 1000 nM	CCN(CC)CCNC(=O)c1cc(Cl)c(N)cc1OCC(=O)NC [Example 40]		0.9 µM	0.1 µM	> 3 mg/kg	62%		56%	
13 µM	> 1000 nM	CCN(CC)CCNC(=O)c1cc(Cl)c(N)cc1OCCNC(C)=O [Example 48]		2.3 µM	0.1 µM	> 3 mg/kg	47%		47%	
20 µM	> 1000 nM	CCN(CC)CCNC(=O)c1cc(Cl)c(N)cc1OCC(=O)N1CCCC1 [Example 59, 4-Amino-5-chloro-N-[2-(diethylamino)ethyl]-2-[2-(1-pyrrolidinyl)-2-oxoethoxy]benzamide]		5.2 µM	1 µM	> 3 mg/kg	66%		38%	
